Measured values: patent publication US6462066B2, “Method and composition for treatment of ischemic neuronal reperfusion injury” (University of South Florida, priority 1999, dated 2002)

Columns and labels:
[1] = Dantrolene treatment of the patient of Example 2 (post-operative bilateral ischemic optic neuropathy), visual acuity and visual fields; format: in vivo, human; conditions: Example 2 patient
Procedure: Their past medical history is significant for an episode of hyperglycemia approximately 45 years previously. They have been a non-smoker for the last 20 years, and prior to that they were a heavy smoker.
The operation lasts for approximately 10 hours. They are under general anesthesia for the duration of the operation. The estimated blood loss is 2200 mL during the operation, of which 1200 mL is replaced via a cell saver, and an additional 2 units of blood is given along with crystalloids. Their blood pressure drops once during the operation to 89 mm Hg. Before the surgery they are able to read with glasses. […] Strong venous pulsations are seen at the optic disc of the left eye. A diagnosis of bilateral ischemic optic neuropathy is made.
(§1) He is placed on intravenous dantrolene, 2 mg/kg body weight q 2 hourly×3 followed q 8 hourly. In addition, […] is placed on solumedrol, 250 mg q 6 hourly. […] visual acuity fields are recorded on a daily basis. On day 3 dantrolene treatment is changed from intravenous to oral 500 mg po tid. On day 4 color vision is restored and on day 5 all treatment is stopped.

excitotoxic damage = conditions: stated as known; cited from earlier work
[2] = Serum level of dantrolene in the patient of Example 2; format: in vivo, human; conditions: Example 2 patient
Procedure: as §1
The serum level of dantrolene is 14×10^−6 gm/mL on day 4, and 15×10^−6 gm/mL on day 2.

[3] = Dantrolene treatment of the patient of Example 1 (post-operative bilateral ischemic optic neuropathy), visual acuity and visual fields; format: in vivo, human; conditions: Example 1 patient
Procedure: A patient undergoes back surgery lasting 8 hours and, upon awakening after 16 hours, complains of not being able to see from their left eye. The surgery had lasted 8 hours, and 1 unit of blood had been lost. During surgery, their systolic blood pressure had dropped to 80 mm Hg. […] They are a contact lens wearer. previously having a corrected visual acuity of 20/20 bilaterally.
There is a relative afferent pupillary defect on the left. They have a sizeable loss of their right visual field, which is illustrated in FIGS. 2A and 2B. […] Both pupils are reactive, varying in diameter from 3.0 to 3.5 mm.
Their extra-ocular muscle movements, intraocular pressures, and anterior segment exam, are within normal limits. […] The right optic disc is of normal color. […] It is pulsatile, and each time a pulse occurs, it jumps away from the optic disc. This can be clearly seen with a 90 diopter lens and a portable Kowa slit lamp, or with a 20 diopter lens and a Keeler indirect opthalmoscope. The retina appears normal in both eyes. […] A clinical diagnosis of posterior ischemic optic neuropathy with resultant field defect and pending loss of vision in the right eye is also made. MRI of the optic nerves confirms these diagnoses. Bilateral swelling of the optic nerves is seen behind the optic discs. The swelling is more marked in the left optic nerve than in the right. MRI confirms that they have a swollen optic left nerve. A diagnosis of bilateral ischemic optic neuropathy is made: the blood supply to the left eye has been occluded, and the same process is occurring in the right eye. Just prior to discovering their loss of sight, their serum calcium is low, and the nurse administers intravenous calcium.
To prevent compression of the blood supply in the right eye, the patient is given high dosed pulsed steroids. However, excitotoxic damage of the retina from reperfusion injury is almost certain in the absence of the treatment of the present invention.
The patient is administered 2 gm solumedrol, and then 1 gm every 6 hours. Dantrolene is administered at 2 mg/kg every 2 hours for three treatments, and then 1 mg/kg every 8 hours.

For `O=C1CN(/N=C/c2ccc(-c3ccc([N+](=O)[O-])cc3)o2)C(O)=N1` [Dantrolene], the “visual acuity with glasses” value ([1]; 16 hours postoperatively, intravenous dantrolene 2 mg/kg q 2 hourly x3 then q 8 hourly, with solumedrol, baseline no light perception in either eye) is given as “counting fingers OU in the superior visual fields”, the color vision ([1]; day 4) is given as “restored” and the “excitotoxic damage in an animal seizure model” value (excitotoxic damage) is given as “prevents excitotoxic damage”. For the same compound, the “serum level of dantrolene” value ([2]; day 2 (intravenous dantrolene)) was 15×10^−6 gm/mL, the “serum level of dantrolene” value ([2]; day 4 (oral 500 mg po tid from day 3)) was 14×10^−6 gm/mL and the “vision of the left eye” value ([3]; 24 hours after initiation of treatment, baseline no perception of light) was “light perception”. The “corrected visual acuity in the right eye” value ([3]; 24 hours later, dantrolene 2 mg/kg every 2 hours x3 then 1 mg/kg every 8 hours, with solumedrol, baseline uncorrected 20/70) was 20/30, the “vision of the left eye” value ([3]; 72 hours after treatment) was “starts to perceive hand movement” and the “uncorrected visual acuity in the right eye” value ([3]; by the fifth day, baseline 20/70) was 20/50. The inferior field loss ([3]; right eye, at the fifth day (lessens from 48 hours after starting treatment)) was “none”, the “corrected visual acuity in the left eye at distance” value ([3]; two months after discharge) was “counting fingers” and the “corrected visual acuity in the left eye at near distance” value ([3]; two months after discharge) was 20/800.
